The target in one assay is T1, CYP2C9 (Homo sapiens, UniProt P11712).
T1 construct: from tissue; host or cells: human liver microsomes
The experiment in a line: CYP inhibition assay, human liver microsomes, substrate diclofenac. It counts as in vitro ADME. The following applies: human liver microsomes, 10 min incubation, LC-MS/MS; read-out: CYP Inhibition Activity (IC50/nM) CYP2C9. The procedure, abridged: (§1)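 Reactions run 10 min at 37 °C with NADPH after a 20 min pre-incubation of compound plus substrate pool; quenched with cold ACN. Read by LC-MS/MS against solvent-only control, giving % inhibition and IC50.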

For another assay, the target named is T2, CYP2D6 (Homo sapiens, UniProt P10635).
T2 construct: from tissue; host or cells: human liver microsomes
T2 sequence (P10635 whole entry): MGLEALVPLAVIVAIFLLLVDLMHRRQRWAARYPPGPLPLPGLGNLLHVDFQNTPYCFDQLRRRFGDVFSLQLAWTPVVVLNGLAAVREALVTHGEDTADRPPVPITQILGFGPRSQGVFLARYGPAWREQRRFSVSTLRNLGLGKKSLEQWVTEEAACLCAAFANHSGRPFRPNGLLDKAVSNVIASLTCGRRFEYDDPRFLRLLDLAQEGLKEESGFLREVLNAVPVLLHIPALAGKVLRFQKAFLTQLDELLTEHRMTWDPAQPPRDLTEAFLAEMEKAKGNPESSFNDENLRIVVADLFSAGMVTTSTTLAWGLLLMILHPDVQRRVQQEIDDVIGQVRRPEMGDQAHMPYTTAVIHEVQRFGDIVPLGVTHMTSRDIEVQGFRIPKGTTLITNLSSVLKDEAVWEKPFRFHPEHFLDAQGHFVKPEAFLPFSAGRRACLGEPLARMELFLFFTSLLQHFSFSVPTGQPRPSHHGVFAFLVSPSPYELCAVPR
Kind of assay: biochemical. It counts as in vitro ADME. The procedure, abridged: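 Read-out is LC-MS/MS of supernatant, giving % inhibition and IC50 relative to a no-inhibitor ACN/DMSO control. Compound and substrate pool were pre-incubated 20 min at 37° C with human liver microsomes (working stock 0.253 mg/mL) before a 10 min NADPH-driven reaction, quenched with cold ACN.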

For another assay, the target named is SRPK1 (Homo sapiens, UniProt Q96SB4). Kind of assay: In vitro SRPK1 assay (Kinase-Glo). It is filed as biochemical.
Sequence of SRPK1 (Q96SB4 whole entry, species assumed): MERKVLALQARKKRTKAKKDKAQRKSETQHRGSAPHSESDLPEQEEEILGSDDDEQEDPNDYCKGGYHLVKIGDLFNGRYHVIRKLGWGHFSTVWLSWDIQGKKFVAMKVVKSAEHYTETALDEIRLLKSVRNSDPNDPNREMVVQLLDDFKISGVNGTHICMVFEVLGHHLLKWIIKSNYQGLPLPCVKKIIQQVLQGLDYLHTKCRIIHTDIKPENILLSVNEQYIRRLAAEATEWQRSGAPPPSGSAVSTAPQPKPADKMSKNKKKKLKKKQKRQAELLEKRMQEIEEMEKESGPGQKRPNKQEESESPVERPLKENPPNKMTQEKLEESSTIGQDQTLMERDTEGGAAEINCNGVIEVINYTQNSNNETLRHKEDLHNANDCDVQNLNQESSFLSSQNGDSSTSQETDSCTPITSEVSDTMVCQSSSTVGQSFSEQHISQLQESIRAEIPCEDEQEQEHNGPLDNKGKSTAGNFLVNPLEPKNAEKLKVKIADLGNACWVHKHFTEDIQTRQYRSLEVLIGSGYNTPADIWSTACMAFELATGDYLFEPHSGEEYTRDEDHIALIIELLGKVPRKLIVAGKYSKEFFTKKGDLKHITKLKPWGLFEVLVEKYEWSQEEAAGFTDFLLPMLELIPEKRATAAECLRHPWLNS
The target of the next assay is T3, CYP3A4 (Homo sapiens, UniProt P08684).
T3 construct: from tissue; host or cells: human liver microsomes
T3 sequence (P08684 whole entry): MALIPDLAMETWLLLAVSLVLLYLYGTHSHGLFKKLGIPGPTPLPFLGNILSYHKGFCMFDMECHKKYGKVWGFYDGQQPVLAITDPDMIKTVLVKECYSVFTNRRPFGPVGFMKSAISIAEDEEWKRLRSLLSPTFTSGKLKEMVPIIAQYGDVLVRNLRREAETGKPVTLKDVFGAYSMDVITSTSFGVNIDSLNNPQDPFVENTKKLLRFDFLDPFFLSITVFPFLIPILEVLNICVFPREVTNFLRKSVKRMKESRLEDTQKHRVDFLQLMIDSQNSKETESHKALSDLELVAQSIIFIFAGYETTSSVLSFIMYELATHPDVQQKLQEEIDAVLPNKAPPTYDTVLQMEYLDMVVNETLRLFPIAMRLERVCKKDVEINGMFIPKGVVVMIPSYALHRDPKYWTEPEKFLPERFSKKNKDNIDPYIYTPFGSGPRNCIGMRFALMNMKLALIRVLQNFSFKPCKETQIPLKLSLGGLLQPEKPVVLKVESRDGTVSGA
Kind of assay: CYP inhibition assay, human liver microsomes, substrate midazolam. It is filed as in vitro ADME. As to conditions: human liver microsomes, 10 min incubation, LC-MS/MS; read-out: CYP Inhibition Activity (IC50/nM) CYP3A4. The method in brief: as §1
A general note: Microsomes from liver hold many membrane-bound enzymes, among them those of drug oxidation.

The target of the next assay is T4, CYP1A2 (Homo sapiens, UniProt P05177).
T4 construct: from tissue; host or cells: human liver microsomes
T4 sequence (P05177 1-516): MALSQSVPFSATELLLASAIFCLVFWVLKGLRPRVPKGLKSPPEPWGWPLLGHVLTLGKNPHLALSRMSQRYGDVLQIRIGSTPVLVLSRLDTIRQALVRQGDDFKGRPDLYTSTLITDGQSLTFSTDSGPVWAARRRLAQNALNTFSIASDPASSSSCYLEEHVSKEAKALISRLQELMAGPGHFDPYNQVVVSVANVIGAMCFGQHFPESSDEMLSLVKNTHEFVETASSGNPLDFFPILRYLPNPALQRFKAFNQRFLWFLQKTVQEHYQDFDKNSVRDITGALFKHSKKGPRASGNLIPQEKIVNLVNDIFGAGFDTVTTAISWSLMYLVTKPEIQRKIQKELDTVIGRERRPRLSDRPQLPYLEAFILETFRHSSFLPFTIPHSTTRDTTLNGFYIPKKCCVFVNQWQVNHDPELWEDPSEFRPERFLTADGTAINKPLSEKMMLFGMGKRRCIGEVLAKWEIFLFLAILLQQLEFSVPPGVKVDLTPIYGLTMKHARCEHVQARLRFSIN
Kind of assay: CYP inhibition assay, human liver microsomes, substrate tacrine. The following applies: human liver microsomes, 10 min incubation, LC-MS/MS; read-out: CYP Inhibition Activity (IC50/nM) CYP1A2. It is filed as in vitro ADME. The procedure, abridged:
as §1

A further assay has as its target T5, CYP2C19 (Homo sapiens, UniProt P33261).
T5 construct: from tissue; host or cells: human liver microsomes
The experiment in a line: CYP inhibition assay, human liver microsomes, substrate S-mephenytoin. It counts as in vitro ADME. As to conditions: human liver microsomes, 10 min incubation, LC-MS/MS; read-out: CYP Inhibition Activity (IC50/nM) CYP2C19. The procedure, abridged: as §1

T5 sequence (P33261 whole entry): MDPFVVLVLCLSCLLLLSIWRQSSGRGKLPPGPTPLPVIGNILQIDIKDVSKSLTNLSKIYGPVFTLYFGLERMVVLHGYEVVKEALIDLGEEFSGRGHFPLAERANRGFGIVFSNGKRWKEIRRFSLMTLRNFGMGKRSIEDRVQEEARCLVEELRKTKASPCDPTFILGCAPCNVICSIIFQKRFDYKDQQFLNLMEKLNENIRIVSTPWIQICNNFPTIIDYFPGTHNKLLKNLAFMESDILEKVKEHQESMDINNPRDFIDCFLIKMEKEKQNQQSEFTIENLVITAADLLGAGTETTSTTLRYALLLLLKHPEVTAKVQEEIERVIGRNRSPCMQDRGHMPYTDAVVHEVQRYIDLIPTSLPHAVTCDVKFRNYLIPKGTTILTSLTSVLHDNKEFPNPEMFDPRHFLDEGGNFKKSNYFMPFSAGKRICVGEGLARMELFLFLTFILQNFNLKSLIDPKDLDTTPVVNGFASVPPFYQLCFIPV
T1 sequence (P11712 whole entry): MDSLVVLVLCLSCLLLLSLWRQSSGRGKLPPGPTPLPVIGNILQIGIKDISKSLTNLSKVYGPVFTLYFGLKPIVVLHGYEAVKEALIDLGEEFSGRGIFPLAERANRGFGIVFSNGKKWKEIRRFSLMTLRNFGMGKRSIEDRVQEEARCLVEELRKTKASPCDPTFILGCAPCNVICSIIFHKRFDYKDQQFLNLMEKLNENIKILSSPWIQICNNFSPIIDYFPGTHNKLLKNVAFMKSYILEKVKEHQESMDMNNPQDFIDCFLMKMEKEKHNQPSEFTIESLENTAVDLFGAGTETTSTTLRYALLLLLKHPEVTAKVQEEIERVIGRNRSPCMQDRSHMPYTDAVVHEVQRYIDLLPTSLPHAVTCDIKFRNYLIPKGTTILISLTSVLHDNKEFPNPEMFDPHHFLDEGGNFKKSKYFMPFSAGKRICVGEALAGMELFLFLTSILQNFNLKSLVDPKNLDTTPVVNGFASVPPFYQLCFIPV

For the compound `Cc1ccc(N2CCC(C)(CN(C)C)CC2)c(NC(=O)c2ccc(C3CCOCC3)o2)c1` [Example 94, N-(2-(4-((dimethylamino)methyl)-4-methyl-piperidin-1-yl)-5-methylphenyl)-5-(tetrahydro-2H-pyran-4-yl)furan-2-carboxamide], the IC50 on CYP2C9 is 17200 nM; on CYP2D6, 0.3 µM; against SRPK1, 167 nM; at CYP3A4, 23100 nM; on CYP1A2, over 30000 nM; on CYP2C19, 25100 nM.
For the compound `O=C(Nc1cc(C2CC2)ccc1N1CCC(O)(CC2CC2)CC1)c1ccc(C2CCOCC2)o1` [Example 71, N-(5-cyclopropyl-2-(4-(cyclopropylmethyl)-4-hydroxypiperidin-1-yl)phenyl)-5-(tetrahydro-2H-pyran-4-yl)furan-2-carboxamide], the IC50 on CYP2C9 is 5420 nM; on CYP2D6, 8.79 µM; against SRPK1 it was 2.9 nM; at CYP3A4, 4190 nM; at CYP1A2, over 30000 nM; on CYP2C19, 2700 nM.
As for `CC1(CO)CCN(c2ccc(C(F)(F)F)cc2NC(=O)c2ccc(C3CCOCC3)o2)CC1` [Example 25, N-(2-(4-(hydroxymethyl)-4-methylpiperidin-1-yl)-5-(trifluoromethyl)phenyl)-5-(tetrahydro-2H-pyran-4-yl)furan-2-carboxamide], the IC50 on CYP2C9 was 4960 nM; against CYP2D6, over 30 µM; against SRPK1, 2 nM; on CYP3A4, over 30000 nM; on CYP1A2 it was over 30000 nM; on CYP2C19, 15800 nM.
Regarding `CC1(C(=O)N2CCOCC2)CCN(c2ccc(C(F)(F)F)cc2NC(=O)c2ccc(C3CCOCC3)o2)CC1` [Example 90, N-(2-(4-methyl-4-(morpholine-4-carbonyl)-piperidin-1-yl)-5-(trifluoromethyl)phenyl)-5-(tetrahydro-2H-pyran-4-yl)furan-2-carboxamide], the IC50 on CYP2C9 is 1000 nM; on CYP2D6 it was 11.6 µM; against SRPK1, 5.5 nM; on CYP3A4 it was 2800 nM; at CYP1A2, over 30000 nM; at CYP2C19 it was 10300 nM.
With `CC1(O)CCN(c2ccc(C3CC3)cc2NC(=O)c2ccc(C3CCOCC3)o2)C1` (racemic) [Example 59, N-(5-cyclopropyl-2-(3-hydroxy-3-methyl-pyrrolidin-1-yl)phenyl)-5-(tetrahydro-2H-pyran-4-yl)furan-2-carboxamide], the IC50 on CYP2C9 is 15000 nM; on CYP2D6, 23.9 µM; against SRPK1, 54 nM; on CYP3A4 it was over 30000 nM; at CYP1A2, 10500 nM; at CYP2C19, 10500 nM.
Consider `CC1(O)CCN(c2ccc(Cl)cc2NC(=O)c2ccc(C3CCOCC3)o2)C1` (racemic) [Example 60, N-(5-chloro-2-(3-hydroxy-3-methylpyrrolidin-1-yl)phenyl)-5-(tetrahydro-2H-pyran-4-yl)furan-2-carboxamide], for which the IC50 on CYP2C9 is over 30000 nM; against CYP2D6, over 30 µM; at SRPK1, 71 nM; at CYP3A4, over 30000 nM; at CYP1A2 it was over 30000 nM; at CYP2C19, 22600 nM.
Take `CC1(CN)CCN(c2ccc(C(F)(F)F)cc2NC(=O)c2ccc(-c3ccncc3)o2)CC1` [Example 78, N-(2-(4-(aminomethyl)-4-methylpiperidin-1-yl)-5-(trifluoromethyl)phenyl)-5-(pyridin-4-yl)furan-2-carboxamide]: the IC50 at CYP2C9 was 9130 nM; against CYP2D6 it was 1.29 µM; at SRPK1, 9.1 nM; at CYP3A4 it was 8320 nM; on CYP1A2, over 30000 nM; on CYP2C19 it was 20000 nM.
Regarding `O=C(Nc1cc(C2CC2)ccc1N1CCCC(O)CC1)c1ccc(-c2ccncc2)o1` (racemic) [Example 46, N-(5-cyclopropyl-2-(4-hydroxyazepan-1-yl)phenyl)-5-(pyridin-4-yl)furan-2-carboxamide], the IC50 at CYP2C9 came out at 1060 nM; at CYP2D6 it was 1.52 µM; on SRPK1, 8.7 nM; on CYP3A4, 2130 nM; at CYP1A2 it was 6240 nM; on CYP2C19, 1180 nM.
For the compound `CC1(C(=O)O)CCN(c2ccc(C(F)(F)F)cc2NC(=O)c2ccc(-c3ccncc3)o2)CC1` [Example 26, 4-methyl-1-(2-(5-(pyridin-4-yl)furan-2-carboxamido)-4-(trifluoromethyl)phenyl)-piperidine-4-carboxylic acid], the IC50 on CYP2C9 was 2150 nM; on CYP2D6, over 30 µM; on SRPK1, 5.6 nM; on CYP3A4, 4440 nM; at CYP1A2 it was over 30000 nM; on CYP2C19 it was 12900 nM.
Regarding `O=C(Nc1cc(Cl)ccc1N1CCCC(O)CC1)c1ccc(-c2ccncc2)o1` (racemic) [Example 45, N-(5-chloro-2-(4-hydroxyazepan-1-yl)phenyl)-5-(pyridin-4-yl)furan-2-carboxamide], the IC50 was determined as 410 nM at CYP2C9; 0.66 µM on CYP2D6; 30 nM at SRPK1; 1430 nM on CYP3A4; 550 nM at CYP1A2; 100 nM on CYP2C19.
For the compound `CC1(O)CCCN(c2ccc(Cl)cc2NC(=O)c2ccc(-c3ccncc3)o2)CC1` (racemic) [Example 38, N-(5-chloro-2-(4-hydroxy-4-methylazepan-1-yl)phenyl)-5-(pyridin-4-yl)furan-2-carboxamide], the IC50 at CYP2C9 worked out at 7670 nM; at CYP2D6 it was 15.4 µM; on SRPK1, 4 nM; at CYP3A4 it was 10000 nM; on CYP1A2, 21700 nM; on CYP2C19 it was 7500 nM.
As for `Cc1ccc(N2CCC(C)(O)C2)c(NC(=O)c2ccc(C3CCOCC3)o2)c1` (racemic) [Example 58, N-(2-(3-hydroxy-3-methylpyrrolidin-1-yl)-5-methylphenyl)-5-(tetrahydro-2H-pyran-4-yl)-furan-2-carboxamide], the IC50 was over 30000 nM on CYP2C9; over 30 µM against CYP2D6; 204 nM against SRPK1; 23200 nM at CYP3A4; over 30000 nM at CYP1A2; over 30000 nM on CYP2C19.
Consider `CN(C)C(=O)C1(C)CCN(c2ccc(C(F)(F)F)cc2NC(=O)c2ccc(C3CCOCC3)o2)CC1` [Example 77, N,N,4-trimethyl-1-(2-(5-(tetrahydro-2H-pyran-4-yl)furan-2-carboxamido)-4-(trifluoromethyl)-phenyl)piperidine-4-carboxamide], for which the IC50 on CYP2C9 was 1440 nM; at CYP2D6 it was 9.54 µM; against SRPK1 it was 1.6 nM; at CYP3A4 it was 970 nM; on CYP1A2 it was over 30000 nM; at CYP2C19 it was 4780 nM.
As to `CN1CCC2(CCN(c3ccc(C(F)(F)F)cc3NC(=O)c3ccc(C4CCOCC4)o3)CC2)C1` [Example 99, N-(2-(2-methyl-2,8-diazaspiro[4.5]decan-8-yl)-5-(trifluoromethyl)phenyl)-5-(tetrahydro-2H-pyran-4-yl)furan-2-carboxamide], the IC50 at CYP2C9 was over 30000 nM; on CYP2D6 it was 3 µM; at SRPK1, 4.8 nM; at CYP3A4 it was 18000 nM; at CYP1A2 it was over 30000 nM; on CYP2C19, over 30000 nM.
As to `O=C(Nc1cc(C(F)(F)F)ccc1N1CCC(O)CC1)c1ccc(C2CCOCC2)o1` [Example 33, N-(2-(4-hydroxypiperidin-1-yl)-5-(trifluoromethyl)-phenyl)-5-(tetrahydro-2H-pyran-4-yl)furan-2-carboxamide], the IC50 on CYP2C9 is 7600 nM; against CYP2D6, 15.2 µM; at SRPK1, 0.9 nM; on CYP3A4, over 30000 nM; on CYP1A2, 10000 nM; on CYP2C19, 8100 nM.
With `CNCC1(C)CCN(c2ccc(C(F)(F)F)cc2NC(=O)c2ccc(C3CCOCC3)o2)CC1` [Example 82, N-(2-(4-methyl-4-((methylamino)methyl)-piperidin-1-yl)-5-(trifluoromethyl)phenyl)-5-(tetrahydro-2H-pyran-4-yl)furan-2-carboxamide], the IC50 at CYP2C9 was over 30000 nM; against CYP2D6, 2.8 µM; against SRPK1, 35 nM; on CYP3A4, 6200 nM; at CYP1A2, over 30000 nM; at CYP2C19 it was 29200 nM.

The values are drawn from patent publication US11420969B2 (Exonate Limited, priority 2017, dated 2022).
